Data as given in ChEMBL document CHEMBL1151561, “Benzopyran sulfoxide derivatives as New potassium channel activator” (Bioorg Med Chem Lett, 1993).

organism: Canis familiaris; test: The compound was tested for its relaxation activity on smooth muscle of canine mesenteric artery; format: functional; conditions: Canis lupus familiaris

Row | EC50 | Compound
1 | 1.96 µM | CC1(C)C=C(C2CCC[S+]2[O-])c2cc([N+](=O)[O-])ccc2O1 (stereo not given)
2 | 0.0618 µM | CC1(C)C=C(c2cccc[n+]2[O-])c2cc([N+](=O)[O-])ccc2O1
3 | 12.2 µM | CC1(C)C[C@](O)(C2CCC[S+]2[O-])c2cc([N+](=O)[O-])ccc2O1 (stereo not given in full)
4 | 0.222 µM | CC1(C)C=C(c2cccc[n+]2[O-])c2cc(C#N)ccc2O1
5 | 1.96 µM | CC1(C)Oc2ccc(C#N)cc2[C@@H](N2CCCC2=O)[C@@H]1O [CROMAKALIM]
